Measured values from patent US9073943B2, “Antiviral compounds with a dibenzooxaheterocycle moiety” (Lupin Limited, priority 2012, dated 2015).

Tests used:
[1] = test system: Huh7.5/J6/JFH1/EMCVIRES/hRlucNeo cell line expressing a bicistronic genotype 2a replicon; experiment: HCV replicon assay, genotype 2a (Renilla luciferase readout); type: cell-based; details: Hepatitis C virus, genotype 2a replicon in Huh 7.5 cells, 72 h, read-out: Gt2a IC50
Source text: (§1) Anti-viral activity of the compounds of the invention was monitored using an HCV replicon assay. The Huh7.5/Con1/SG-Neo(I)hRluc2aUb cell line persistently expressing a bicistronic genotype 1b replicon in Huh 7.5 cells and the Huh7.5/J6/JFH1/EMCVIRES/hRlucNeo cell line expressing a bicistronic genotype 2a replicon in Huh 7.5 cells were obtained from Apath LLC. These cell lines were used to test inhibition of replicon levels by test compound using Renilla luciferase enzyme activity readout as a measure of viral replication efficiency.
(§2) Briefly, 7000-7500 cells were seeded in 96 well black clear bottom plates and allowed to adhere overnight. The next day each compound was added in triplicate to the cells at the desired concentration with a final DMSO concentration of 0.5%. Cells in media alone and cells incubated without drug with 0.5% DMSO served as controls. The plates were incubated for 72 h at 37° C. prior to running the luciferase assay. Enzyme activity was measured using Renilla-Glo Luciferase Assay kit from Promega as per the manufacturer's instructions. The following equation was used to generate the percent inhibition value for each test concentration.
(§3) The IC50 value was determined using GraphPad Prism and the following equation: Y=Bottom+(Top−Bottom)/(1+10^((LogIC50−X)*Hill slope))
(§4) IC50 values/% inhibitions of compounds were determined 2-3 times in the replicon assays.

[2] = test system: Huh7.5/Con1/SG-Neo(I)hRluc2aUb cell line persistently expressing a bicistronic genotype 1b replicon; experiment: HCV replicon assay, genotype 1b (Renilla luciferase readout); type: cell-based; details: Hepatitis C virus, genotype 1b replicon in Huh 7.5 cells, 72 h, read-out: Gt1b IC50
Source text: as §1, §2, §3, §4

| Structure (SMILES) | IC50 [1] | IC50 [2] |
| --- | --- | --- |
| COC(=O)N[C@H](C(=O)N1CCC[C@H]1c1ncc(-c2ccc3c(c2)OCCCOc2cc(-c4[nH]c([C@@H]5CCCN5C(=O)[C@@H](NC(=O)OC)C(C)C)nc4Cl)ccc2-3)[nH]1)C(C)C [Compound 2, methyl ((S)-1-((S)-2-(5-(11-(2-((S)-1-((S)-2-(methoxycarbonyl)amino-3-methylbutanoyl)pyrrolidin-2-yl)-1H-imidazol-5-yl)-7,8-dihydro-6H-dibenzo[f,h][1,5]dioxonin-3-yl)-4-chloro-1H-imidazol-2-yl)pyrrolidin-1-yl)-3-methyl-1-oxobutan-2-yl)carbamate] | 0.053 nM | 0.051 nM |
| COC(=O)N[C@H](C(=O)N1CCC[C@H]1c1nc(Cl)c(-c2ccc3c(c2)OCCCOc2cc(-c4[nH]c([C@@H]5CCCN5C(=O)[C@@H](NC(=O)OC)C(C)C)nc4Cl)ccc2-3)[nH]1)C(C)C [Compound 3, dimethyl ((2S,2′S)-((2S,2′S)-2,2′-(5,5′-(7,8-dihydro-6H-dibenzo[f,h][1,5]dioxonine-3,11-diyl)bis(4-chloro-1H-imidazole-5,2-diyl))bis(pyrrolidine-2,1-diyl))bis(3-methyl-1-oxobutane-2,1-diyl))dicarbamate] | 0.037 nM | 0.018 nM |
| COC(=O)N[C@H](C(=O)N1CCC[C@H]1c1ncc(-c2ccc3c(c2)OCC(C)(C)COc2cc(-c4[nH]c([C@@H]5CCCN5C(=O)[C@@H](NC(=O)OC)C(C)C)nc4Cl)ccc2-3)[nH]1)C(C)C [Compound 6, methyl ((S)-1-((S)-2-(5-(11-(2-((S)-1-((S)-2-(methoxycarbonyl)amino-3-methylbutanoyl)pyrrolidin-2-yl)-4-chloro-1H-imidazol-5-yl)-7,7-dimethyl-7,8-dihydro-6H-dibenzo[f,h][1,5]dioxonin-3-yl)-1H-imidazol-2-yl)pyrrolidin-1-yl)-3-methyl-1-oxobutan-2-yl)carbamate] | 0.671 nM | 0.021 nM |
| COC(=O)N[C@H](C(=O)N1CCC[C@H]1c1nc(Cl)c(-c2ccc3c(c2)OCC(C)(C)COc2cc(-c4[nH]c([C@@H]5CCCN5C(=O)[C@@H](NC(=O)OC)C(C)C)nc4Cl)ccc2-3)[nH]1)C(C)C [Compound 7, dimethyl ((2S,2′S)-((2S,2′S)-2,2′-(5,5′-(7,7-dimethyl-7,8-dihydro-6H-dibenzo[f,h][1,5]dioxonine-3,11-diyl)bis(4-chloro-1H-imidazole-5,2-diyl))bis(pyrrolidine-2,1-diyl))bis(3-methyl-1-oxobutane-2,1-diyl))dicarbamate] | 0.249 nM | 0.004 nM |
